Results taken from paper PMC11470957, “Principles of paralog-specific targeted protein degradation engaging the C-degron E3 KLHDC2” (Nature Communications, 2024).
Several values for one entry are separate records, joined by “and”; a condition that tells them apart may be missing. Equal entries are not always repeated. Where two headings read alike, the source gives them in different places.

Legend:
BRD2 = BRD2 (Homo sapiens, UniProt P25440); assay: Western blot of BRD2 levels after cellular dosing
Chain of BRD2 (P25440 whole entry): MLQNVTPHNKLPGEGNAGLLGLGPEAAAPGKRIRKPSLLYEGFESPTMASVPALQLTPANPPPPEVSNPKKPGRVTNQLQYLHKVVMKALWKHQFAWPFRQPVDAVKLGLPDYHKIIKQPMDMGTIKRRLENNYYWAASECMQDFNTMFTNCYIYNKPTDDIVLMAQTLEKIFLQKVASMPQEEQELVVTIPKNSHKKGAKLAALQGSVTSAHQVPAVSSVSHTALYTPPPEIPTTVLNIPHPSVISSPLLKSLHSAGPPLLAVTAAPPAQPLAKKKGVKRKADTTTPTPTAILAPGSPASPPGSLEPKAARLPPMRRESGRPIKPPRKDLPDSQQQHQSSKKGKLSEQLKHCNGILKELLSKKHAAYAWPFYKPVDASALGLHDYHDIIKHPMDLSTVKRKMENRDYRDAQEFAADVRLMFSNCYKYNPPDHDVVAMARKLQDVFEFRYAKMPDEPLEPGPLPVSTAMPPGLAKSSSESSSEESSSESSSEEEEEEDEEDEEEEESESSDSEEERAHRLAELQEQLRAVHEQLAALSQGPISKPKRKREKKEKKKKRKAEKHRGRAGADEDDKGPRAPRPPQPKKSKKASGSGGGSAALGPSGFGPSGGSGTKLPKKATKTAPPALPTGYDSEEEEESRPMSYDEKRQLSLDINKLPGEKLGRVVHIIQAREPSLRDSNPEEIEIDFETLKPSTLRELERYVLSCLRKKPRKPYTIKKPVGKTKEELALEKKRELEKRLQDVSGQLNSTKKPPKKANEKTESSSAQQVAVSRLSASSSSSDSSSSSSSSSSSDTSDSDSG

KLHDC2 = biological target: T1, KLHDC2 (Homo sapiens, UniProt Q9Y2U9); assay: Western blot of KLHDC2 levels after cellular dosing
T1 sequence (Q9Y2U9 1-406): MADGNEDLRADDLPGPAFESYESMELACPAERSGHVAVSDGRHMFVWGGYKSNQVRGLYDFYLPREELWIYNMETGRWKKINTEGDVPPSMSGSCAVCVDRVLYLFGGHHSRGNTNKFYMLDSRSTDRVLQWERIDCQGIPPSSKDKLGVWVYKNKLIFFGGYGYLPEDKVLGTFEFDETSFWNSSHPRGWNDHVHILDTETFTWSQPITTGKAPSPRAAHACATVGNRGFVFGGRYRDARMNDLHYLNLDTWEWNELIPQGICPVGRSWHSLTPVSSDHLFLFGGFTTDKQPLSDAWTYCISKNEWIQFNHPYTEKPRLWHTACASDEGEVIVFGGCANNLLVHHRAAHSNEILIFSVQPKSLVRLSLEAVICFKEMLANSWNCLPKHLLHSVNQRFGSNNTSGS

[1] = U2OS, read-out: BRD2 level, Western blot quantification (DMSO = 100), Fig S6d, U2OS KO/rescue Dose Response
[2] = read-out: BRD2 level, Western blot quantification (DMSO = 100), Fig S6e, PC3 KO/rescue Dose Response

COC(=O)CNC(=O)Cc1csc(-c2ccc3cccc(OCCN4CCN(C(=O)C[C@@H]5N=C(c6ccc(Cl)cc6)c6c(sc(C)c6C)-n6c(C)nnc65)CC4)c3c2)n1 [SJ46420]
remaining activity at 5 µM (BRD2; U2OS, read-out: BRD2 level, Western blot quantification (DMSO = 100), Fig S6i, U2OS, 5uM): 118% | remaining activity at 0.156 µM (BRD2; [1]): 83.3% | remaining activity at 0.313 µM (BRD2; [1]): 100% | remaining activity at 0.625 µM (BRD2; [1]): 81.2% | remaining activity at 1.25 µM (BRD2; [1]): 85.7% | remaining activity at 2.5 µM (BRD2; [1]): 86.6% | remaining activity at 5 µM (BRD2; U2OS, read-out: BRD2 level, Western blot quantification (DMSO = 100), Fig S6d, U2OS KO/rescue Dose Response, 5 uM): 86.5% | Dmax (BRD2; read-out: BRD2 Dmax, PC3, 24 h dose): 19.5% | remaining activity at 5 µM (BRD2; read-out: BRD2 level, Western blot quantification (DMSO = 100), Fig 6b, KO/Rescue, 5 uM): 78.2% | remaining activity at 0.156 µM (BRD2; [2]): 99% | remaining activity at 0.313 µM (BRD2; [2]): 82.2% | remaining activity at 0.625 µM (BRD2; [2]): 66.6% | remaining activity at 1.25 µM (BRD2; [2]): 49.5% | remaining activity at 2.5 µM (BRD2; [2]): 30.5% | remaining activity at 5 µM (BRD2; read-out: BRD2 level, Western blot quantification (DMSO = 100), Fig S6e, PC3 KO/rescue Dose Response, 5 uM): 13.8% | remaining activity at 10 µM (BRD2; read-out: BRD2 level, Western blot quantification (DMSO = 100), Fig S6e, PC3 KO/rescue Dose Response, 10uM): 1.16% | KLHDC2 level relative to DMSO (100%) (KLHDC2; 22Rv1, 0.16µM, 24 h, Fig S6f): 167 +/- 17% | KLHDC2 level relative to DMSO (100%) (KLHDC2; 22Rv1, 0.31µM, 24 h, Fig S6f): 171 +/- 10% | KLHDC2 level relative to DMSO (100%) (KLHDC2; 22Rv1, 0.63µM, 24 h, Fig S6f): 179 +/- 13% | KLHDC2 level relative to DMSO (100%) (KLHDC2; 22Rv1, 1.3µM, 24 h, Fig S6f): 199 +/- 27% | KLHDC2 level relative to DMSO (100%) (KLHDC2; 22Rv1, 2.5µM, 24 h, Fig S6f): 170 +/- 35% | KLHDC2 level relative to DMSO (100%) (KLHDC2; 22Rv1, 5µM, 24 h, Fig S6f): 238 +/- 26% | KLHDC2 level relative to DMSO (100%) (KLHDC2; 22Rv1, 10µM, 24 h, Fig S6f): 356 +/- 37% | KLHDC2 level relative to DMSO (100%) (KLHDC2; 293T, 2.5µM, 24 h, Fig S6a): 130 +/- 3.8% | KLHDC2 level relative to DMSO (100%) (KLHDC2; 293T, 5µM, 24 h, Fig S6a): 132 +/- 4.4% | KLHDC2 level relative to DMSO (100%) (KLHDC2; AU565, 0.2µM, 8 h, Fig S6c): 96 +/- 4.5% | KLHDC2 level relative to DMSO (100%) (KLHDC2; AU565, 1µM, 8 h, Fig S6c): 102 +/- 8.6% | KLHDC2 level relative to DMSO (100%) (KLHDC2; AU565, 5µM, 8 h, Fig S6c): 104 +/- 6.7% | KLHDC2 level, Western blot quantification (KLHDC2; Fig 6b, KO/Rescue, 5 uM, DMSO printed 0): 0 | KLHDC2 level, Western blot quantification (DMSO = 100) (KLHDC2; Fig 6b, U2OS, 5 uM): 114.478 and 116.145 | KLHDC2 level, Western blot quantification (DMSO = 100) (KLHDC2; Fig 6c, 1 uM): 373.51 and 441.349 | KLHDC2 level, Western blot quantification (DMSO = 100) (KLHDC2; Fig 6d, 1 uM): 1598.67 and 1321.11 | KLHDC2 level, Western blot quantification (DMSO = 100) (KLHDC2; Fig 6d, 1uM together with 1uM MLN4924): 4337 and 4000.23 | KLHDC2 level, Western blot quantification (DMSO = 100) (KLHDC2; Fig S6a, 293T cells, 2.5 uM): 127.565 and 133 | KLHDC2 level, Western blot quantification (DMSO = 100) (KLHDC2; Fig S6a, 293T cells, 5 uM): 128.652 and 135 | KLHDC2 level, Western blot quantification (DMSO = 100) (KLHDC2; Fig S6b, MDA-MB468 Cells, 2 uM): 157.366 and 160 | KLHDC2 level, Western blot quantification (DMSO = 100) (KLHDC2; Fig S6b, MDA-MB468 Cells, 5 uM): 170.896 and 175 | KLHDC2 level, Western blot quantification (DMSO = 100) (KLHDC2; Fig S6b, MDA-MB468 Cells, 10 uM): 190.223 and 200 | KLHDC2 level, Western blot quantification (DMSO = 100) (KLHDC2; Fig S6c, AU565 Cells, 0.2 uM): 94.0454 and 99.4615 | KLHDC2 level, Western blot quantification (DMSO = 100) (KLHDC2; Fig S6c, AU565 Cells, 1 uM): 108.13 and 96.9184 | KLHDC2 level, Western blot quantification (DMSO = 100) (KLHDC2; Fig S6c, AU565 Cells, 5 uM): 108.427 and 99.9384 | KLHDC2 level, Western blot quantification (DMSO = 100) (KLHDC2; Fig S6f, 22RV1 KO/rescue Dose Response, 0.156 uM): 180 and 155 | KLHDC2 level, Western blot quantification (DMSO = 100) (KLHDC2; Fig S6f, 22RV1 KO/rescue Dose Response, 0.313 uM): 178 and 164 | KLHDC2 level, Western blot quantification (DMSO = 100) (KLHDC2; Fig S6f, 22RV1 KO/rescue Dose Response, 0.625 uM): 188 and 170 | KLHDC2 level, Western blot quantification (DMSO = 100) (KLHDC2; Fig S6f, 22RV1 KO/rescue Dose Response, 1.25 uM): 219 and 180 | KLHDC2 level, Western blot quantification (DMSO = 100) (KLHDC2; Fig S6f, 22RV1 KO/rescue Dose Response, 2.5 uM): 149 and 192 | KLHDC2 level, Western blot quantification (DMSO = 100) (KLHDC2; Fig S6f, 22RV1 KO/rescue Dose Response, 5 uM): 256 and 220 | KLHDC2 level, Western blot quantification (DMSO = 100) (KLHDC2; Fig S6f, 22RV1 KO/rescue Dose Response, 10uM): 382 and 330
